What was measured:
[1] = target: cGMP-inhibited 3',5'-cyclic phosphodiesterase 3A (Homo sapiens, UniProt Q14432); test: Biochemical assay (PDE3A)
[2] = target: Epithelial discoidin domain-containing receptor 1 (Homo sapiens) (UniProt Q08345); details: Compound concentration 100.0 nM
[3] = target: Dual 3',5'-cyclic-AMP and -GMP phosphodiesterase 11A (Homo sapiens, UniProt Q9HCR9); test: Biochemical assay (PDE11A)
[4] = target: Serine/threonine-protein kinase PAK 1 (Homo sapiens) (UniProt Q13153); details: Compound concentration 100.0 nM
[5] = target: Ribosomal protein S6 kinase alpha-3 (Homo sapiens) (UniProt P51812); details: Compound concentration 100.0 nM
[6] = target: Casein kinase I isoform alpha-like (Homo sapiens) (UniProt Q8N752); details: Compound concentration 100.0 nM
[7] = target: Misshapen-like kinase 1 (Homo sapiens) (UniProt Q8N4C8); details: Compound concentration 100.0 nM
[8] = target: Mitogen-activated protein kinase 11 (Homo sapiens) (UniProt Q15759); details: Compound concentration 100.0 nM
[9] = target: Vascular endothelial growth factor receptor 1 (Homo sapiens) (UniProt P17948); details: Compound concentration 100.0 nM
[10] = target: Ribosomal protein S6 kinase alpha-1 (Homo sapiens) (UniProt Q15418); details: Compound concentration 100.0 nM
[11] = target: Serine/threonine-protein kinase DCLK1 (Homo sapiens) (UniProt O15075); details: Compound concentration 100.0 nM
[12] = target: Dual specificity tyrosine-phosphorylation-regulated kinase 1A (Homo sapiens) (UniProt Q13627); details: Compound concentration 100.0 nM
[13] = target: Serine/threonine-protein kinase Nek11 (Homo sapiens) (UniProt Q8NG66); details: Compound concentration 100.0 nM
[14] = target: Insulin receptor (Homo sapiens) (UniProt P06213); details: Compound concentration 100.0 nM
[15] = target: BMP-2-inducible protein kinase (Homo sapiens) (UniProt Q9NSY1); details: Compound concentration 100.0 nM
[16] = target: Kappa-type opioid receptor (Homo sapiens) (UniProt P41145); details: Compound concentration 10.0 uM
[17] = test system: Receptor-type tyrosine-protein kinase FLT3 (Homo sapiens), P36888 [D835Y]; details: Compound concentration 100.0 nM
[18] = test system: Receptor-type tyrosine-protein kinase FLT3 (Homo sapiens), P36888 [D835H]; details: Compound concentration 100.0 nM
[19] = target: Cyclin-dependent kinase 14 (Homo sapiens) (UniProt O94921); details: Compound concentration 100.0 nM
[20] = target: Serine/threonine-protein kinase tousled-like 2 (Homo sapiens) (UniProt Q86UE8); details: Compound concentration 100.0 nM
[21] = target: Proto-oncogene tyrosine-protein kinase Src (Homo sapiens) (UniProt P12931); details: Compound concentration 100.0 nM
[22] = target: Tyrosine-protein kinase Mer (Homo sapiens) (UniProt Q12866); details: Compound concentration 100.0 nM
[23] = target: Mast/stem cell growth factor receptor Kit (Homo sapiens) (UniProt P10721); details: Compound concentration 100.0 nM
[24] = target: Serine/threonine-protein kinase PLK4 (Homo sapiens) (UniProt O00444); details: Compound concentration 100.0 nM
[25] = target: Serine/threonine-protein kinase PAK 4 (Homo sapiens) (UniProt O96013); details: Compound concentration 100.0 nM
[26] = target: D(4) dopamine receptor (Homo sapiens) (UniProt P21917); details: Compound concentration 10.0 uM
[27] = target: Death-associated protein kinase 2 (Homo sapiens) (UniProt Q9UIK4); details: Compound concentration 100.0 nM
[28] = target: Phosphatidylinositol 4-phosphate 3-kinase C2 domain-containing subunit beta (Homo sapiens) (UniProt O00750); details: Compound concentration 100.0 nM
[29] = target: 5-hydroxytryptamine receptor 6 (Homo sapiens) (UniProt P50406); details: Compound concentration 10.0 uM
[30] = target: Death-associated protein kinase 1 (Homo sapiens) (UniProt P53355); details: Compound concentration 100.0 nM
[31] = target: Serine/threonine-protein kinase ULK2 (Homo sapiens) (UniProt Q8IYT8); details: Compound concentration 100.0 nM
[32] = target: Tyrosine-protein kinase Tec (Homo sapiens) (UniProt P42680); details: Compound concentration 100.0 nM
[33] = target: TRAF2 and NCK-interacting protein kinase (Homo sapiens) (UniProt Q9UKE5); details: Compound concentration 100.0 nM
[34] = target: cAMP-dependent protein kinase catalytic subunit alpha (Homo sapiens) (UniProt P17612); details: Compound concentration 100.0 nM
[35] = test system: Receptor-type tyrosine-protein kinase FLT3 (Homo sapiens), P36888 [D835V]; details: Compound concentration 100.0 nM
[36] = target: Serine/threonine-protein kinase N1 (Homo sapiens) (UniProt Q16512); details: Compound concentration 100.0 nM
[37] = target: T1, Alpha-2B adrenergic receptor (Homo sapiens) (UniProt P18089); details: Compound concentration 10.0 uM
T1 sequence (whole entry): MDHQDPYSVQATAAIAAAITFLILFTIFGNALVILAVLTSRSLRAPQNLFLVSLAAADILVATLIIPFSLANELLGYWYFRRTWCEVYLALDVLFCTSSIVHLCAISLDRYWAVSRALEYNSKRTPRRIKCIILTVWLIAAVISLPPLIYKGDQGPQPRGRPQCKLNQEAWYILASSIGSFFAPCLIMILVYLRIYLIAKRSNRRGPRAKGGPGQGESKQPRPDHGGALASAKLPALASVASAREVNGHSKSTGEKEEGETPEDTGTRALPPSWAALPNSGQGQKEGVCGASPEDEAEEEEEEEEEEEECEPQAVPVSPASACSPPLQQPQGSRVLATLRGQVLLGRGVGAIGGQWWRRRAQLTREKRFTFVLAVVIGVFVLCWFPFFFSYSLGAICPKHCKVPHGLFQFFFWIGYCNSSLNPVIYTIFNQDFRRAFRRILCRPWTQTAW

[38] = target: Delta-type opioid receptor (Homo sapiens) (UniProt P41143); details: Compound concentration 10.0 uM
[39] = target: Phosphatidylinositol 4,5-bisphosphate 3-kinase catalytic subunit delta isoform (Homo sapiens) (UniProt O00329); details: Compound concentration 100.0 nM

Sequence of Phosphatidylinositol 4-phosphate 3-kinase C2 domain-containing subunit beta (Homo sapiens) (O00750 whole entry, the tested form may be a part): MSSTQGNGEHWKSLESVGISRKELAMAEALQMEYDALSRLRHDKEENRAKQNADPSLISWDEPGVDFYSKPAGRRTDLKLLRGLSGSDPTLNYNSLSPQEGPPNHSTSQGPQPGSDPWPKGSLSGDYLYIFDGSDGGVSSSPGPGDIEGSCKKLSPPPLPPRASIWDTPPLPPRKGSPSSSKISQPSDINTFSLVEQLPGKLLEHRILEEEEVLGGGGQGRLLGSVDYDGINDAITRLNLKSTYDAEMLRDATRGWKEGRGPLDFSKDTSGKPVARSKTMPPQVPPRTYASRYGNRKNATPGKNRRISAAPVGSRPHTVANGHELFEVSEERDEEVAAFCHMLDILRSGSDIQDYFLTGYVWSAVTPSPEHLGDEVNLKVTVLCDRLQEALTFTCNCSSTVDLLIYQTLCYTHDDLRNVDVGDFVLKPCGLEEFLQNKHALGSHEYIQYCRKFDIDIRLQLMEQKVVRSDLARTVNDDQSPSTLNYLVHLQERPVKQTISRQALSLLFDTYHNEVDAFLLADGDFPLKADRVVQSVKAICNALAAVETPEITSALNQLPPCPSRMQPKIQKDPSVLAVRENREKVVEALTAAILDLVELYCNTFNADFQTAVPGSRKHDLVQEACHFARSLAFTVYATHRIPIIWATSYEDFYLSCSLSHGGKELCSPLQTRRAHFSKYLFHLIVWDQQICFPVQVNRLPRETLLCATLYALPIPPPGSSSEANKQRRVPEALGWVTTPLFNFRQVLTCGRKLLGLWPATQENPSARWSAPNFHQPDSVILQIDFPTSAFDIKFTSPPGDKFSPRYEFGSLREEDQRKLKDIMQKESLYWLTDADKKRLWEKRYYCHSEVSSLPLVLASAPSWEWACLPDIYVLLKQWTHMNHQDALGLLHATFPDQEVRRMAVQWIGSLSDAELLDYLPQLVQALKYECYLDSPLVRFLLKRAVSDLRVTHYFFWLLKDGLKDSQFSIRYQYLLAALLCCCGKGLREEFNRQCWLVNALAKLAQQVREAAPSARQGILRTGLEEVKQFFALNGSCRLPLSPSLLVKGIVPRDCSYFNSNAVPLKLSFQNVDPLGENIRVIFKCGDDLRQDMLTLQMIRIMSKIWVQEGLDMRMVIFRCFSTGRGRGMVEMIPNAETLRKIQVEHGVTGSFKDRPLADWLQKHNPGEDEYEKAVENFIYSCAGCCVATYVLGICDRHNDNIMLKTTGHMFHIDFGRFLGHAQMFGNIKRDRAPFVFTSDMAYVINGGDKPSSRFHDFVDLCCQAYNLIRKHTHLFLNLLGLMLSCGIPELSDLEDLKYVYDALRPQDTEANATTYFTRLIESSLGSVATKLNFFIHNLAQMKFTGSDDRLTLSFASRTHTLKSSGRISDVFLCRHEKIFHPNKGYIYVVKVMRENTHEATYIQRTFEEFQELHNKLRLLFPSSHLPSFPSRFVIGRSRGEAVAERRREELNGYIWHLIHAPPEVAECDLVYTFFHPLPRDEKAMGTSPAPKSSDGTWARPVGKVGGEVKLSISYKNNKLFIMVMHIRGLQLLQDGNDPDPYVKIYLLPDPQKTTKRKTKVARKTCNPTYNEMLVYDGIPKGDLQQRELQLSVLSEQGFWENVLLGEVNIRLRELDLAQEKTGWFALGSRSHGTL
Sequence of Proto-oncogene tyrosine-protein kinase Src (Homo sapiens) (P12931 2-536 limits assumed): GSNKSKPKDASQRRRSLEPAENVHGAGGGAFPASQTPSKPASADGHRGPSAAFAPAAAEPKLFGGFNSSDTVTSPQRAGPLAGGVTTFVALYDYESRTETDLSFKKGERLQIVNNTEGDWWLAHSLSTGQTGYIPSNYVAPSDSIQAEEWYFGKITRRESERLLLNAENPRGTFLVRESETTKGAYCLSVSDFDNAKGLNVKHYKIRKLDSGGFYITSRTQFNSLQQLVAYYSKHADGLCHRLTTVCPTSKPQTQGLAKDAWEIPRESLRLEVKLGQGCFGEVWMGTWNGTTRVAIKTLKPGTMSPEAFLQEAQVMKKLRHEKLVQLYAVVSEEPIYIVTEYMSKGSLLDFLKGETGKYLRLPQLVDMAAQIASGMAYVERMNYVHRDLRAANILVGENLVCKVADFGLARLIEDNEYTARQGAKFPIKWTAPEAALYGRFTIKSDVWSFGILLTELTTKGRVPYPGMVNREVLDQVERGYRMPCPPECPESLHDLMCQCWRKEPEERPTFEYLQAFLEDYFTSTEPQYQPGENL
Sequence of Mast/stem cell growth factor receptor Kit (Homo sapiens) (P10721 whole entry): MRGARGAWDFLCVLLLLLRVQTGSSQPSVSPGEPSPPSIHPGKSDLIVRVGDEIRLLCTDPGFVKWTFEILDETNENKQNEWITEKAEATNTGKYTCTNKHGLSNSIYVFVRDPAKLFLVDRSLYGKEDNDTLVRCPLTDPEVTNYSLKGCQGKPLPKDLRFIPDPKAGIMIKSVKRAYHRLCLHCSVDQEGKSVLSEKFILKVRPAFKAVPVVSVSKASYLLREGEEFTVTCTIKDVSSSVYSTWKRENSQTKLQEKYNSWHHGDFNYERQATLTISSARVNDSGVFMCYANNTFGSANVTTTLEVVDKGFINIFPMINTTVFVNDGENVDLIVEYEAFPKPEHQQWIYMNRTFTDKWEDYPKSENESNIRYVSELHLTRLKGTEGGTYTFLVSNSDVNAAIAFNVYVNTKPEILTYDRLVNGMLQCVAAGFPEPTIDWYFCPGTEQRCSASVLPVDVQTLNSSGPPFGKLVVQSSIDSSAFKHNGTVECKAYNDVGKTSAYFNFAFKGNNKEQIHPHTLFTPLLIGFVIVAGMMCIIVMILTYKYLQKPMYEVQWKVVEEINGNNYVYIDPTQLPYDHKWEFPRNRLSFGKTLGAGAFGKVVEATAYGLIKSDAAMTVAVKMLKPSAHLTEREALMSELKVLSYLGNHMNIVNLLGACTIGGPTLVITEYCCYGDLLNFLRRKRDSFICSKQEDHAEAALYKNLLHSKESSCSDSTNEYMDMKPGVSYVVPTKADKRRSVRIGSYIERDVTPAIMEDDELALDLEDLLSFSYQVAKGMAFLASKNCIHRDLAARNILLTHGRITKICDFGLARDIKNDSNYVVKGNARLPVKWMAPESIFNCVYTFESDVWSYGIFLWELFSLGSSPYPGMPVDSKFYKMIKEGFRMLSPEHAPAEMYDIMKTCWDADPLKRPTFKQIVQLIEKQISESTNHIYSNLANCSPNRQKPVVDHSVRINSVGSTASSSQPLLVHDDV
Sequence of Casein kinase I isoform alpha-like (Homo sapiens) (Q8N752 whole entry, canonical isoform): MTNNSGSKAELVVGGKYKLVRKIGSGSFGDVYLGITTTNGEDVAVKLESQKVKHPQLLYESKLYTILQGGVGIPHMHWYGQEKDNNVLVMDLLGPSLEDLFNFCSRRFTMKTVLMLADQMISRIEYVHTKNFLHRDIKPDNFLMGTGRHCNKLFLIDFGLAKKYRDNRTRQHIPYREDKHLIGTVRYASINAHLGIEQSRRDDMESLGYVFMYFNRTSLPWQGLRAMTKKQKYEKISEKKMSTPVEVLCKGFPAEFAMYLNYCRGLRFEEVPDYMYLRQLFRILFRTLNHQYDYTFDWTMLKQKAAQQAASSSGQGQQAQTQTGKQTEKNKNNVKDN
Sequence of Death-associated protein kinase 2 (Homo sapiens) (Q9UIK4 whole entry, looked up, the tested form may be a part): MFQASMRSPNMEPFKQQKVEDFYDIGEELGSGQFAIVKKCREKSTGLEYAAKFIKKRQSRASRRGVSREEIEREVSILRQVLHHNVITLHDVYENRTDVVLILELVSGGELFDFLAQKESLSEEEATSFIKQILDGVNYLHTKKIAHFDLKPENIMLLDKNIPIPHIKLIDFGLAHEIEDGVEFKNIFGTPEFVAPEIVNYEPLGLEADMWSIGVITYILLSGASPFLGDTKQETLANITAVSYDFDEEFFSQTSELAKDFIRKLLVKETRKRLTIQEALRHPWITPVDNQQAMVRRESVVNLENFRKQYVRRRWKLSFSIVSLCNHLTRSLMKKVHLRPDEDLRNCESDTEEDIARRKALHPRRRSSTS
Sequence of 5-hydroxytryptamine receptor 6 (Homo sapiens) (P50406 whole entry): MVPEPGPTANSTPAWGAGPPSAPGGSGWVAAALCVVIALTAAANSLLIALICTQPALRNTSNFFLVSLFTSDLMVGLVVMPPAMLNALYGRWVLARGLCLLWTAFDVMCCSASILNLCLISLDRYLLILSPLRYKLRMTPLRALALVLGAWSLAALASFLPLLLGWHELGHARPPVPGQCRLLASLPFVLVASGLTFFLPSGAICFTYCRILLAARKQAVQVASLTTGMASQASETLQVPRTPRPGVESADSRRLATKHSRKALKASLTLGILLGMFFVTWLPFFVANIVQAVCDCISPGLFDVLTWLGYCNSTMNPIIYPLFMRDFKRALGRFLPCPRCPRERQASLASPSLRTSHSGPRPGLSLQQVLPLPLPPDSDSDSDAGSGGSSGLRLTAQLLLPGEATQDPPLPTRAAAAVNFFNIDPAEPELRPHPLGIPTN
Sequence of Tyrosine-protein kinase Tec (Homo sapiens) (P42680 whole entry): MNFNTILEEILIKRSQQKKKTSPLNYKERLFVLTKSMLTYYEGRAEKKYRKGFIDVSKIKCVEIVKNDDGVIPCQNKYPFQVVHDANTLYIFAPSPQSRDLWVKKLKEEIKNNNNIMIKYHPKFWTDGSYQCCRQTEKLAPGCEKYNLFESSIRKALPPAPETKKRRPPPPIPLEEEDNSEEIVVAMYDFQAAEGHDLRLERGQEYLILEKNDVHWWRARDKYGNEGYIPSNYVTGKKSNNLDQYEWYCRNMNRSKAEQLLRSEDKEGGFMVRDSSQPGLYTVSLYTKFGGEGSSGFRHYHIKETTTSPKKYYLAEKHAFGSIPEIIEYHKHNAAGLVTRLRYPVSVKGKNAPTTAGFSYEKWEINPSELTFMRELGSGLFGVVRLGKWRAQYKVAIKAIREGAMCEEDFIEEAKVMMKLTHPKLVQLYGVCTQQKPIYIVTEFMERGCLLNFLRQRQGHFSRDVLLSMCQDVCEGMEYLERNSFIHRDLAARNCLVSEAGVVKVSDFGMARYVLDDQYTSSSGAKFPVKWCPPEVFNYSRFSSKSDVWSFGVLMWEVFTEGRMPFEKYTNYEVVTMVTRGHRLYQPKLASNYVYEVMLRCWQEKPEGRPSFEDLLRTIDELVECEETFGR

Row | Structure (SMILES) | Ki [1] | residual activity [2] [%] | Ki [3] | residual activity [4] [%] | residual activity [5] [%] | residual activity [6] [%] | residual activity [7] [%] | residual activity [8] [%] | residual activity [9] [%] | residual activity [10] [%] | residual activity [11] [%] | residual activity [12] [%] | residual activity [13] [%] | residual activity [14] [%] | residual activity [15] [%] | inhibition [16] [%] | residual activity [17] [%] | residual activity [18] [%] | residual activity [19] [%] | residual activity [20] [%] | other results
1 | CC(C)CC(=O)N1CCc2nc(-c3ccc(Br)cc3)nc(N(C)Cc3ccccc3)c2C1 [THPP-1-NC] | > 50 µM (not active) | 100 | 8.8 µM (not active) | 100 | 67 | 100 | 100 | 100 | 100 | 100 | 100 | 78 | 98 | 84 | 99 | 38 | 100 | 100 | 100 | 100 | residual activity [21]: 100%; residual activity [22]: 100%; residual activity [23]: 100%; residual activity [24]: 70%; residual activity [25]: 100%; inhibition [26]: 7.93%; residual activity [27]: 100%; residual activity [28]: 100%; inhibition [29]: 0.81%; residual activity [30]: 100%; residual activity [31]: 89%; residual activity [32]: 100%; residual activity [33]: 100%; residual activity [34]: 89%; residual activity [35]: 95%; residual activity [36]: 100%; inhibition [37]: 29%; inhibition [38]: 8.22%; residual activity [39]: 82%
2 | COCCOc1nc(-c2ccc(Cl)nc2)nc2c1CN(C(=O)c1ncn3ccccc13)CC2 [THPP-1] | 3.3 µM (not active) | 100 | 0.298 µM (not active) | 100 | 82 | 100 | 100 | 100 | 87 | 100 | 100 | 78 | 100 | 76 | 90 | -1.56 | 100 | 100 | 100 | 100 | residual activity [21]: 95%; residual activity [22]: 89%; residual activity [23]: 100%; residual activity [24]: 85%; residual activity [25]: 100%; inhibition [26]: 15.7%; residual activity [27]: 100%; residual activity [28]: 100%; inhibition [29]: -4.55%; residual activity [30]: 100%; residual activity [31]: 100%; residual activity [32]: 100%; residual activity [33]: 100%; residual activity [34]: 82%; residual activity [35]: 100%; residual activity [36]: 100%; inhibition [37]: -2.32%; inhibition [38]: 6.52%; residual activity [39]: 94%
